As usually defined, the IC50 is the concentration that gives 50% inhibition. A high value points to weaker potency in that assay.

Several values for one entry are separate records, joined by “and”; a condition that tells them apart may be missing. Equal entries are not always repeated.

Data on four compounds can be found in PMC10509173, “Deep learning driven de novo drug design based on gastric proton pump structures” (Communications Biology, 2023).

This test has as its target H+,K+-ATPase (Sus scrofa, UniProt P19156). The test is described as follows: Dose-dependent inhibition of H+,K+-ATPase activity, membrane fractions. The conditions noted are these: for H+,K+-ATPase activity, raw data of dose-dependent inhibition: single replicate values.
Where [1] appears, read: [PCAB] -3.30103 (log, unit not given).
The mark [2] stands for this setting: [PCAB] -3.52288 (log, unit not given).
Setting [3] is: [PCAB] -4 (log, unit not given).
Where [4] appears, read: [PCAB] -4.30103 (log, unit not given).
Where [5] appears, read: [PCAB] -4.52288 (log, unit not given).
Setting [6] is: [PCAB] -5 (log, unit not given).
The mark [7] stands for this setting: [PCAB] -5.52288 (log, unit not given).
Where [8] appears, read: [PCAB] -6 (log, unit not given).
[9] abbreviates: [PCAB] -6.30103 (log, unit not given).
Where [10] appears, read: [PCAB] -7 (log, unit not given).
Where [11] appears, read: [PCAB] -8 (log, unit not given).
[12] abbreviates: [PCAB] -11 (log, unit not given; possibly placeholder for no compound).

Chain of H+,K+-ATPase (P19156 2-1034 limits assumed): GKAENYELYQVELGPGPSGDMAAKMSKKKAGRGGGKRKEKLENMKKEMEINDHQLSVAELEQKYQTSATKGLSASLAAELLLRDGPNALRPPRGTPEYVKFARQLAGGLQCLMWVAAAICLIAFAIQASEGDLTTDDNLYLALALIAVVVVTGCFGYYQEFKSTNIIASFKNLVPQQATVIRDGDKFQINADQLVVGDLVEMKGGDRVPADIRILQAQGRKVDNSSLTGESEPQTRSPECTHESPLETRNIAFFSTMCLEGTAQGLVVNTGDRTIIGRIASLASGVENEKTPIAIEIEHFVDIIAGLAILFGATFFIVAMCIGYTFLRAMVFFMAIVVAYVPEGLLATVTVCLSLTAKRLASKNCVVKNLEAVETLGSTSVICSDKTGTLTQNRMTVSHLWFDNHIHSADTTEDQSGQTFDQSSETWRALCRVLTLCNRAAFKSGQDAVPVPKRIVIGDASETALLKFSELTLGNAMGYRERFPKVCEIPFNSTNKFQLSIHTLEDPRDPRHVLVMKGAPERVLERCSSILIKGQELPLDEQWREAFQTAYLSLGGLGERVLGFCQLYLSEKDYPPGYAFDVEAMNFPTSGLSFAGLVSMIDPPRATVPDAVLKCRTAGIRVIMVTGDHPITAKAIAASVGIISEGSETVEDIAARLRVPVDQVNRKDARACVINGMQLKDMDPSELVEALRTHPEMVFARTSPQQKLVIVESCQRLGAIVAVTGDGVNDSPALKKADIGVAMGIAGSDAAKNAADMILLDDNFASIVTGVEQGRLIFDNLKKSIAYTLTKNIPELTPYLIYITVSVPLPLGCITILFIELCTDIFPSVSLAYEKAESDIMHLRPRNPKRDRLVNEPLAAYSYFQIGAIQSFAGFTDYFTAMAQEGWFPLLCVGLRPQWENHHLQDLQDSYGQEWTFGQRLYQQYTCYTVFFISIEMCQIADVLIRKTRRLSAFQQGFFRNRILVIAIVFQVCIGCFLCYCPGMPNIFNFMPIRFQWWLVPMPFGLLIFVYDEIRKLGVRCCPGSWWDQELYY
Chain of H+,K+-ATPase (P18434 whole entry partner): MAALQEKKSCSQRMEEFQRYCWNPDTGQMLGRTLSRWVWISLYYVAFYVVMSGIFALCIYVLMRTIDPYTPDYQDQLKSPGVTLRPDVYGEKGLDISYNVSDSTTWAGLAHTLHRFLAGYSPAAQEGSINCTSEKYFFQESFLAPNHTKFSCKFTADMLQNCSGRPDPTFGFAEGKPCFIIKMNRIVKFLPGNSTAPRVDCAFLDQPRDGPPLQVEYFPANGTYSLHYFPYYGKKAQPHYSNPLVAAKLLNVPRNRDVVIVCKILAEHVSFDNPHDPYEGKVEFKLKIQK

`CNCC#CCn1ccc2cccc(C#Cc3cccc(Cl)c3)c21` [DQ-16] displayed an IC50 of 89.4 ± 13.5 µM. Also, under setting [1], the “H+,K+-ATPase activity, raw data of dose-dependent inhibition” value was 24.42 and 42.17. In addition, the “H+,K+-ATPase activity, raw data of dose-dependent inhibition” value under setting [2] is 44.41 and 66.92. For the same compound, under setting [3], the “H+,K+-ATPase activity, raw data of dose-dependent inhibition” value is 87.71 and 67.55. For the same compound, the “H+,K+-ATPase activity, raw data of dose-dependent inhibition” value under setting [4] was 103.26 and 71.7 and 101.95 and 107.11 and 107.49 and 103.62. In addition, the “H+,K+-ATPase activity, raw data of dose-dependent inhibition” value under setting [5] was 107.4 and 104.96 and 100.44 and 100.8 and 99.65 and 99.6. Also, under setting [6], the “H+,K+-ATPase activity, raw data of dose-dependent inhibition” value is 105.07 and 103.28 and 102.18 and 95.06 and 104.24 and 100.65. In addition, the “H+,K+-ATPase activity, raw data of dose-dependent inhibition” value under setting [7] was 112.46 and 113.5 and 115.83 and 115.26 and 112.62 and 114.01. For the same compound, the “H+,K+-ATPase activity, raw data of dose-dependent inhibition” value under setting [8] was 106.69 and 106.05 and 103.52 and 103.99 and 105.16 and 107.1. The “H+,K+-ATPase activity, raw data of dose-dependent inhibition” value under setting [9] is 101.16 and 99.6 and 102.96 and 104.58 and 100.87 and 100.34. Under setting [10], the “H+,K+-ATPase activity, raw data of dose-dependent inhibition” value was 95.95 and 99.26 and 100.97 and 100.31 and 101.14 and 100.94. In addition, the “H+,K+-ATPase activity, raw data of dose-dependent inhibition” value under setting [11] is 95.83 and 94.95 and 90.34 and 101.71 and 99.53 and 101.3. Besides, under setting [12], the “H+,K+-ATPase activity, raw data of dose-dependent inhibition” value is 95.82 and 93.84 and 98.4 and 100.56 and 99.28 and 103.27.

Turning to `NCc1ccc(OCc2ccccc2OCc2ccccc2)cc1` [DQ-12], the IC50 amounted to 1.54 ± 0.07 µM. In addition, under setting [1], the “H+,K+-ATPase activity, raw data of dose-dependent inhibition” value is -2.13 and -5.12 and -1.35 and 1.97 and -1.31 and 0.69. Under setting [2], the “H+,K+-ATPase activity, raw data of dose-dependent inhibition” value is -0.8 and -0.12 and -1.95 (2×) and -1.32 and -0.19. Further, the “H+,K+-ATPase activity, raw data of dose-dependent inhibition” value under setting [3] was 0.73 and 0 and -0.35 and -0.11 and -0.2 and 0.01. For the same compound, the “H+,K+-ATPase activity, raw data of dose-dependent inhibition” value under setting [4] was 3.34 and 3.14 and -0.81 and -0.94 and -0.85 and -0.15. Moreover, the “H+,K+-ATPase activity, raw data of dose-dependent inhibition” value under setting [5] was 5.83 and 5.43 and 5.22 and 6.02 and 6.1 and 5.29. For the same compound, under setting [6], the “H+,K+-ATPase activity, raw data of dose-dependent inhibition” value was 14.6 and 14.36 and 13.48 and 12.93 and 13.73 and 12.81. Moreover, the “H+,K+-ATPase activity, raw data of dose-dependent inhibition” value under setting [7] is 35.47 and 34.66 and 35.13 and 34.7 and 33.05 and 34.53. Besides, under setting [8], the “H+,K+-ATPase activity, raw data of dose-dependent inhibition” value was 63.22 and 63.5 and 59.87 and 57.62 and 57.1 and 58.43. For the same compound, the “H+,K+-ATPase activity, raw data of dose-dependent inhibition” value under setting [9] is 74.96 and 75.04 and 76.55 and 75.62 and 74.4 and 76.41. The “H+,K+-ATPase activity, raw data of dose-dependent inhibition” value under setting [10] is 91.01 and 87.51 and 98.57 and 99.1 and 95.69 and 97.51. Further, the “H+,K+-ATPase activity, raw data of dose-dependent inhibition” value under setting [11] is 96.05 and 93.52 and 100.03 and 97.19 and 98.53 and 98.62. Further, under setting [12], the “H+,K+-ATPase activity, raw data of dose-dependent inhibition” value is 97.64 and 96.4 and 100.03 and 99.55 and 98.47 and 102.15.

As for `CNCC#CCn1ccnc1NC(=O)c1ccccc1` [DQ-09], the IC50 was > 2000 µM. In addition, the “H+,K+-ATPase activity, raw data of dose-dependent inhibition” value ([PCAB] -3.455 (log, unit not given)) is 63.11 and 66.04 and 91.33 and 94.1 and 93.4 and 93.07. Also, the “H+,K+-ATPase activity, raw data of dose-dependent inhibition” value ([PCAB] -3.67685 (log, unit not given)) is 81.52 and 80.18 and 94.54 and 95.44 and 96.5 and 95.18. For the same compound, under “[PCAB] -4.15397 (log, unit not given)”, the “H+,K+-ATPase activity, raw data of dose-dependent inhibition” value was 92.95 and 94.76 and 92.15 and 93.44 and 92.03 and 93.77. Also, the “H+,K+-ATPase activity, raw data of dose-dependent inhibition” value ([PCAB] -4.455 (log, unit not given)) was 99 and 99.88 and 97.42 and 97.61 and 95.39 and 91.33. Further, the “H+,K+-ATPase activity, raw data of dose-dependent inhibition” value ([PCAB] -4.67685 (log, unit not given)) was 97.65 and 97.31 and 107.67 and 103.09 and 98.87 and 105.02. Besides, for the setting “[PCAB] -5.15397 (log, unit not given)”, the “H+,K+-ATPase activity, raw data of dose-dependent inhibition” value is 99.93 and 96.29 and 97.51 and 98.34 and 88.34 and 93.86. The “H+,K+-ATPase activity, raw data of dose-dependent inhibition” value ([PCAB] -5.67685 (log, unit not given)) was 101.49 and 99.52 and 93.88 and 106.02 and 103.98 and 106.05. Besides, the “H+,K+-ATPase activity, raw data of dose-dependent inhibition” value ([PCAB] -6.15397 (log, unit not given)) is 99.11 and 99.53 and 98.71 and 99.47 and 95.43 and 99.9. Besides, the “H+,K+-ATPase activity, raw data of dose-dependent inhibition” value ([PCAB] -7.00046 (log, unit not given)) is 100.13 and 101.44 and 98.87 and 102.62 and 97 and 100.92. Besides, the “H+,K+-ATPase activity, raw data of dose-dependent inhibition” value ([PCAB] -7.15397 (log, unit not given)) was 100.4 and 99.7 and 97.72 and 99.58 and 95.86 and 98.79. Moreover, the “H+,K+-ATPase activity, raw data of dose-dependent inhibition” value ([PCAB] -8.15397 (log, unit not given)) is 99.08 and 99.65 and 97.54 and 97.72 and 99.14 and 96.06. Under setting [12], the “H+,K+-ATPase activity, raw data of dose-dependent inhibition” value was 99.26 and 98.65 and 101.5 and 98.45 and 98.97 and 101.13.

In the case of `CNCc1ccc(OCc2cc(Cl)ccc2OCc2ccc(Cl)cc2)c(Cl)c1` [DQ-07], inhibition was half-maximal at 3.2 ± 0.2 µM (IC50). Under setting [1], the “H+,K+-ATPase activity, raw data of dose-dependent inhibition” value is 0.27 and 0.6 and 3.27 and 8.56 and 2.84 and 6.16. Besides, the “H+,K+-ATPase activity, raw data of dose-dependent inhibition” value under setting [2] is -0.35 and -0.17 and 2.58 and 2.95 and 2.71 and 3.29. Under setting [3], the “H+,K+-ATPase activity, raw data of dose-dependent inhibition” value is -1.84 and -1.63 and 1.31 and 1.18 and 1.05 and 1.62. Further, under setting [4], the “H+,K+-ATPase activity, raw data of dose-dependent inhibition” value is -1.84 and -1.6 and 2.69 and 2.52 and 2.83 and 2.8. Moreover, the “H+,K+-ATPase activity, raw data of dose-dependent inhibition” value under setting [5] was -1.24 and -1.47 and 3.31 and 3.19 and 3.75 and 3.57. In addition, the “H+,K+-ATPase activity, raw data of dose-dependent inhibition” value under setting [6] is 4.55 and 4.67 and 12.66 and 12.06 and 13.24 and 12.08. In addition, the “H+,K+-ATPase activity, raw data of dose-dependent inhibition” value under setting [7] was 45.69 and 44.11 and 51.61 and 59.03 and 63.14 and 61.87. Moreover, the “H+,K+-ATPase activity, raw data of dose-dependent inhibition” value under setting [8] was 84.95 (2×) and 82.82 and 90.61 and 90.08 and 95.69. For the same compound, the “H+,K+-ATPase activity, raw data of dose-dependent inhibition” value under setting [9] was 90.87 and 90.7 and 95.03 and 96.7 and 92.33 and 94.31. Further, the “H+,K+-ATPase activity, raw data of dose-dependent inhibition” value under setting [10] is 96.69 and 96.52 and 102.14 and 98.38 and 97.9 and 99.91. Besides, the “H+,K+-ATPase activity, raw data of dose-dependent inhibition” value under setting [11] was 96.57 and 99.63 and 102.72 and 99.81 and 97.87 and 101.66. Further, the “H+,K+-ATPase activity, raw data of dose-dependent inhibition” value under setting [12] is 100.45 and 97.72 and 103.9 and 100.73 and 98.44 and 100.87.
